The values below come from ChEMBL document CHEMBL4433232, “Tool inhibitors and assays to interrogate the biology of the TRAF2 and NCK interacting kinase” (Bioorg Med Chem Lett, 2019).

Calls of active or inactive are those of the source. No cut-off for these calls is given here.

By inhibition is commonly meant the change of the read-out against control, counted positive when it falls.

Assay [1] addresses AP2-associated protein kinase 1 (Homo sapiens) (UniProt Q2M2I8). Description: Inhibition of AAK1 (unknown origin) at 0.1 uM relative to control.
Assay [2] concerns the target T1, Mitogen-activated protein kinase kinase kinase kinase 4 (Homo sapiens, UniProt O95819). Description: Inhibition of human full length MAP4K4(1-1239)-G5-Avi-6His-Flag expressed in baculovirus-infected sf21 cells using His6-SMAD1 as substrate preincubated for 30 mins followed by substrate addition and measured after 120 mins by ADP-Glo Reagent based method. A general note: ADP-Glo turns the ADP formed in a reaction into a luminescent signal.
Target sequence in this assay (O95819 whole entry): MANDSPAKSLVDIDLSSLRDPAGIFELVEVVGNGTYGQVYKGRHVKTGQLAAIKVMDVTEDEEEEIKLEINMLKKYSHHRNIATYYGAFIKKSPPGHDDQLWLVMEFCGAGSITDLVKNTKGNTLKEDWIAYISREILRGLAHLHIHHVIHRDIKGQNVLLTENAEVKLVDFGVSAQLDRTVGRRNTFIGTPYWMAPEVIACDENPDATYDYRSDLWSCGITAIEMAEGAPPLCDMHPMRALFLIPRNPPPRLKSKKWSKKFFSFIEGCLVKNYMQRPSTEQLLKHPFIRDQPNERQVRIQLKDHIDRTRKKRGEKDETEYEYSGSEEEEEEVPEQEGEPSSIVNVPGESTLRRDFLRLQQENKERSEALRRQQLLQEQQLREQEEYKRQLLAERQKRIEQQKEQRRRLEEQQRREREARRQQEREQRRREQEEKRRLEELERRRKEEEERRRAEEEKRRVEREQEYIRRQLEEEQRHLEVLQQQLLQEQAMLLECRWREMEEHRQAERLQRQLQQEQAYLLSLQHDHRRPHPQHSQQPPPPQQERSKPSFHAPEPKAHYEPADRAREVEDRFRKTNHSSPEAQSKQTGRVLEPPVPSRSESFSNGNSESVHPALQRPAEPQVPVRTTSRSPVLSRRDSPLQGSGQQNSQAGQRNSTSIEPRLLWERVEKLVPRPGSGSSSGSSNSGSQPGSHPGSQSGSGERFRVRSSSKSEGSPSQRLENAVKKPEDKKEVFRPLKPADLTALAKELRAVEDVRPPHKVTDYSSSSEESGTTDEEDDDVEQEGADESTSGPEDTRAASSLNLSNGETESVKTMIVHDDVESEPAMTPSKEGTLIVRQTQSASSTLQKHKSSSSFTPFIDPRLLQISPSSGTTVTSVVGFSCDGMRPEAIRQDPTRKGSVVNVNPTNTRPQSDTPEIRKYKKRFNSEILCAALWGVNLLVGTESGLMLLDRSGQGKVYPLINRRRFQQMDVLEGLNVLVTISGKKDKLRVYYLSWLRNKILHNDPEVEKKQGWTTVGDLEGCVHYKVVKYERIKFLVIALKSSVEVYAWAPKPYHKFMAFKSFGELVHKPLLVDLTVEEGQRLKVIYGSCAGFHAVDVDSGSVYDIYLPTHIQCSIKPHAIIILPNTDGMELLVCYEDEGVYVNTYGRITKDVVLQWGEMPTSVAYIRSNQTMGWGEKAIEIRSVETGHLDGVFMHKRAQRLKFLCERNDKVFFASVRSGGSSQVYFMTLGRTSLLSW

Assay [3] has as its target Leucine-rich repeat serine/threonine-protein kinase 2 (Homo sapiens) (UniProt Q5S007). Description: Inhibition of full length LRRK2 (unknown origin) at 0.1 uM relative to control.
Assay [4] has as its target T1, Mitogen-activated protein kinase kinase kinase kinase 4. Kind of assay: Inhibition of MAP4K4 (unknown origin) at 0.1 uM relative to control.
The target in assay [5] is T2, Interleukin-1 receptor-associated kinase 3 (Homo sapiens) (UniProt Q9Y616).
T2 sequence (whole entry): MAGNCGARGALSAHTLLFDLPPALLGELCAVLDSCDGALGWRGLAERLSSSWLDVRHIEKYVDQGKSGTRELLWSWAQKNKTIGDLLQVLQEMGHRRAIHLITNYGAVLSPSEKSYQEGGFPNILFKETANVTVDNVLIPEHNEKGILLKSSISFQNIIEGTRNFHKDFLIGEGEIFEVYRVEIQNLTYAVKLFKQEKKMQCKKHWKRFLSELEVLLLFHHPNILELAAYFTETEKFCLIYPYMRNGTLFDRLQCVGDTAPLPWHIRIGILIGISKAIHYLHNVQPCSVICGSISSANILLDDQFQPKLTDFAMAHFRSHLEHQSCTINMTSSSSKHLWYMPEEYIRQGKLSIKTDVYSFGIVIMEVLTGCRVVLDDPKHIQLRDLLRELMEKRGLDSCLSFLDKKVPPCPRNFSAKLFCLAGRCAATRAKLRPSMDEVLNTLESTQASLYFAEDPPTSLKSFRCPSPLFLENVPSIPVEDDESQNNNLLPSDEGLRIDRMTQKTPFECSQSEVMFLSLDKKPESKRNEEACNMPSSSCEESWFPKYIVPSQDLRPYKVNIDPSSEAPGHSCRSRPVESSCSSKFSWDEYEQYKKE
Description: Inhibition of IRAK3 (unknown origin) at 0.1 uM relative to control.

The target of assay [6] is Dual specificity protein kinase CLK4 (Homo sapiens) (UniProt Q9HAZ1). Description: Inhibition of CLK4 (unknown origin) at 0.1 uM relative to control.
Sequence of Dual specificity protein kinase CLK4 (Homo sapiens) (Q9HAZ1 whole entry, looked up): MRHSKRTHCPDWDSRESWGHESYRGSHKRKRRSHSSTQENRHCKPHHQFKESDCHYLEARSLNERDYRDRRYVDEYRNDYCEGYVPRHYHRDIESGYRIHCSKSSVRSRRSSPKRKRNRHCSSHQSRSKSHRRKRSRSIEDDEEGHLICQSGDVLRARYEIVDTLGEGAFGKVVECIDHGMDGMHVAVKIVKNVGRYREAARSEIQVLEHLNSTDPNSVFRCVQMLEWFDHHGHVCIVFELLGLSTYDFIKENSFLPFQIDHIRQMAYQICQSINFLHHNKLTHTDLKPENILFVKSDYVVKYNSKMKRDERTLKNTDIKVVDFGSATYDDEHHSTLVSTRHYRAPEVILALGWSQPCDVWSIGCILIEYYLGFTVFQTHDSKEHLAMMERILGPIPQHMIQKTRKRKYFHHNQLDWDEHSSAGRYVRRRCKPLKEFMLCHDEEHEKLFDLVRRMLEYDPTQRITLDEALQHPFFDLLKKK
For assay [7], the target named is T3, Misshapen-like kinase 1 (Homo sapiens, UniProt Q8N4C8). Kind of assay: Inhibition of human 6His-TEV-Avi-MINK1(1 to 328)-GNS expressed in baculovirus-infected sf21 cells using LRRKtide as substrate preincubated for 30 mins followed by substrate addition and measured after 75 to 90 mins by ADP-Glo Reagent based method.
T3 sequence (Q8N4C8 whole entry): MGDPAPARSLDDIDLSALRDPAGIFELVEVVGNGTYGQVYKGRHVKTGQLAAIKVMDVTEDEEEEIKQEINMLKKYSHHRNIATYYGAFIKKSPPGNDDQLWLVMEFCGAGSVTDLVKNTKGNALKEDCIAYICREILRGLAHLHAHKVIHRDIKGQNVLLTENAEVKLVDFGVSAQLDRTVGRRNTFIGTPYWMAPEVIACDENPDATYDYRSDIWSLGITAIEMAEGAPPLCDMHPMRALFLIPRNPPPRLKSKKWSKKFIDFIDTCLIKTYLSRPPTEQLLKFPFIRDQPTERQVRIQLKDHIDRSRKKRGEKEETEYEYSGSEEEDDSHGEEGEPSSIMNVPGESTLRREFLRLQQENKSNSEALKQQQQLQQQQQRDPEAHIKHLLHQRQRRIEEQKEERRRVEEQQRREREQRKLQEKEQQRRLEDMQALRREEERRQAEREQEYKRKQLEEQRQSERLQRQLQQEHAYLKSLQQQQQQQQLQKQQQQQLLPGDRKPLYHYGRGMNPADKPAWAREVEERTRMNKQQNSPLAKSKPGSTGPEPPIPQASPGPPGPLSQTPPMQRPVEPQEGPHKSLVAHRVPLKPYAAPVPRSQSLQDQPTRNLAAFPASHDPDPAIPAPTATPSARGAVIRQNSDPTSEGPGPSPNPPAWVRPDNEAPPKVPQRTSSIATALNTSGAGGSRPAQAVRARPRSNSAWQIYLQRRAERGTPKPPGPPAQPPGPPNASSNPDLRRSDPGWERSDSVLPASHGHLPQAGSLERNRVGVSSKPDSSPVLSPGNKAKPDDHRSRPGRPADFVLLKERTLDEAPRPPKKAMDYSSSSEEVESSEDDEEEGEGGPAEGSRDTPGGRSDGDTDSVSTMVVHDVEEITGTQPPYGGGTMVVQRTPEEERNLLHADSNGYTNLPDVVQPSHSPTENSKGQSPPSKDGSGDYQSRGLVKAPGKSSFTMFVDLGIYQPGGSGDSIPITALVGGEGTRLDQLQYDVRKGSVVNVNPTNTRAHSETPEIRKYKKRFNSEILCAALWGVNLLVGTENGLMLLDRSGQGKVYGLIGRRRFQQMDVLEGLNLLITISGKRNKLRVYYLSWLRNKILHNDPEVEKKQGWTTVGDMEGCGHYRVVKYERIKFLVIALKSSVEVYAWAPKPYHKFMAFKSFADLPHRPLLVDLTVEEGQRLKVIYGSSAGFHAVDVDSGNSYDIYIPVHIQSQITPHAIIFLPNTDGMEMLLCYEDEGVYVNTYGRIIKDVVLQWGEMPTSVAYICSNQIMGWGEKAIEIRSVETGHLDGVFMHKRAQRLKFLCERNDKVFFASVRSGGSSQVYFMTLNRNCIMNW
The subject of the next assay is Saccharomyces cerevisiae. Kind of assay: Inhibition of Saccharomyces cerevisiae CDC7/DBF4 at 0.1 uM relative to control.
Assay [8] addresses T3, Misshapen-like kinase 1. Description: Inhibition of human full length MINK1(1-1332)-G5-Avi-6His-Flag expressed in baculovirus-infected sf21 cells using His6-SMAD1 as substrate preincubated for 30 mins followed by substrate addition and measured after 120 mins by ADP-Glo Reagent based method.
In assay [9] the target is T4, Myosin light chain kinase family member 4 (Homo sapiens) (UniProt Q86YV6).
T4 sequence (whole entry): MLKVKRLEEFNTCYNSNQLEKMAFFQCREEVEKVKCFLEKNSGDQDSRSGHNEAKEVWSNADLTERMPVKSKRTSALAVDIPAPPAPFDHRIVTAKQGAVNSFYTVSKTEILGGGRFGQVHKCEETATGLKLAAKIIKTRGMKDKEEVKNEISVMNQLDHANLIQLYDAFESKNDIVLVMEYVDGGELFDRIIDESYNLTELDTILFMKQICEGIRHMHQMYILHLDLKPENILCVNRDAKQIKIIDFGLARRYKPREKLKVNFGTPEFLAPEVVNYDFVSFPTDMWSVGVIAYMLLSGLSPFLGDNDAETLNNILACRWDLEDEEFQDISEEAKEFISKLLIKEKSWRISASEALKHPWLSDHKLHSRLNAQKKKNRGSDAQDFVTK
Description: Inhibition of MYLK4 (unknown origin) at 0.1 uM relative to control.

Assay [10] addresses T1, Mitogen-activated protein kinase kinase kinase kinase 4. Kind of assay: Inhibition of human 6His-TEV-SHM-MAP4K4(2 to 328)-GNS expressed in baculovirus-infected sf21 cells using LRRKtide as substrate preincubated for 30 mins followed by substrate addition and measured after 75 to 90 mins by ADP-Glo Reagent based method.
Target sequence in this assay (O95819 whole entry): as the sequence (O95819 whole entry) above
Assay [11] concerns the target T5, TRAF2 and NCK-interacting protein kinase (Homo sapiens, UniProt Q9UKE5). Description: Inhibition of human full length TNIK(1-1360)-G5-Avi-6His-Flag expressed in baculovirus-infected sf21 cells using His6-SMAD1 as substrate preincubated for 30 mins followed by substrate addition and measured after 120 mins by ADP-Glo Reagent based method.
Target sequence in this assay (Q9UKE5 whole entry): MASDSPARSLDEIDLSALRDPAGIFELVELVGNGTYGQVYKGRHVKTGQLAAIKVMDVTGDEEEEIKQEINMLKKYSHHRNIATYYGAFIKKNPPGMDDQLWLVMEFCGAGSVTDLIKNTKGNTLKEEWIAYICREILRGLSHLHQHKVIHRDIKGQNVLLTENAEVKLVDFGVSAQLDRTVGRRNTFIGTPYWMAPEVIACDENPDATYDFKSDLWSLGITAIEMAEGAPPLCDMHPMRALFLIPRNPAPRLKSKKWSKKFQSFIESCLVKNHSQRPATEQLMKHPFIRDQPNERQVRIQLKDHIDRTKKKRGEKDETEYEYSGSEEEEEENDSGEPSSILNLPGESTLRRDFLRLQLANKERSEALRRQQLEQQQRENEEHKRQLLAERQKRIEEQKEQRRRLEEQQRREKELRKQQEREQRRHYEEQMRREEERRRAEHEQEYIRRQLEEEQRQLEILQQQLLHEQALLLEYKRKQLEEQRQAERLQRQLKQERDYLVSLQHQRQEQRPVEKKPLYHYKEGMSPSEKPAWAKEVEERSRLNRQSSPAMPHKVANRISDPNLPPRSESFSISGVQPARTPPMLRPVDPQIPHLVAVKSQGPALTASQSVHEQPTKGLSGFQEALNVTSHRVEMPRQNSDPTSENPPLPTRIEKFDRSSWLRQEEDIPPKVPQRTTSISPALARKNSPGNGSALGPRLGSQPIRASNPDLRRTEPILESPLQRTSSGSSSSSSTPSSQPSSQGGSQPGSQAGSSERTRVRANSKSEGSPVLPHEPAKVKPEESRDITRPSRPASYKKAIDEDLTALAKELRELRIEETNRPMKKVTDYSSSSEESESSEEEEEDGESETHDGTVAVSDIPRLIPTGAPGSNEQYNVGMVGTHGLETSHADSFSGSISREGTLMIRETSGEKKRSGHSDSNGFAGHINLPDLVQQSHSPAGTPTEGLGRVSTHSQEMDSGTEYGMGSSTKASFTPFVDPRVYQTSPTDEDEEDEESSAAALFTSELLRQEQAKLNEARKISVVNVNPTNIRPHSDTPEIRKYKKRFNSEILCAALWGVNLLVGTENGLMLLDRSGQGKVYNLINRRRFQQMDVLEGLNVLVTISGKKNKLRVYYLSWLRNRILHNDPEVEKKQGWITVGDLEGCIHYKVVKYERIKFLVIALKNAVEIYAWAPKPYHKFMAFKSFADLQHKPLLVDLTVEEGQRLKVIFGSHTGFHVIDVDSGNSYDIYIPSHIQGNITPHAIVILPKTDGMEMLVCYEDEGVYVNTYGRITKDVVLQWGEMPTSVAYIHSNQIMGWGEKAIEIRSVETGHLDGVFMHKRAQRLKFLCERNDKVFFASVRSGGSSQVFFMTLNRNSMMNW
Assay [12] deals with T5, TRAF2 and NCK-interacting protein kinase. Description: Inhibition of human full length TNIK in HEK293 cells co-transfected with full length SMAD1 incubated for 2 hrs by ELISA. It is filed as cell-based. (In general: In an ELISA, binding on a coated surface is turned into a signal by an enzyme label.)
Target sequence in this assay (Q9UKE5 whole entry): as above
For assay [13] the target is unchanged. Kind of assay: Inhibition of human TNIK in human iPSC derived neuronal progenitor cells assessed as reduction in motif phosphorylation at 10 uM after 6 hrs with presence of okadaic acid by Western blot analysis.
Target sequence in this assay (Q9UKE5 whole entry, looked up): as the sequence (Q9UKE5 whole entry) above
The target is the same in assay [14]. Kind of assay: Inhibition of human 6His-TEV-TNIK(1 to 325) expressed in baculovirus-infected sf21 cells using LRRKtide as substrate preincubated for 30 mins followed by substrate addition and measured after 75 to 90 mins by ADP-Glo Reagent based method.
Target sequence in this assay (Q9UKE5 whole entry): as above
For assay [15], the target named is Leucine-rich repeat serine/threonine-protein kinase 2 (Homo sapiens) (UniProt Q5S007). Description: Inhibition of LRRK2 (unknown origin) at 0.1 uM relative to control.
Assay [16] addresses T5, TRAF2 and NCK-interacting protein kinase. Description: Inhibition of human full length TNIK in HEK293 cells co-transfected with full length SMAD1 up to 30 uM incubated for 2 hrs by ELISA. It is filed as cell-based.
Target sequence in this assay (Q9UKE5 whole entry, looked up): as the sequence (Q9UKE5 whole entry) above

For the compound `Nc1ncc(Br)c2ccc(-c3ccnc(F)c3)nc12`, the inhibition came out at 95% in [1]; 61% in assay [3]; 99% in [4]; 90% in assay [5]; 51% in assay [6]; 56% with Saccharomyces cerevisiae. Also, the inhibition in assay [9] was 73%; in assay [15], 54%. Moreover, the IC50 is 20 nM in [2]; 50.1 nM at Misshapen-like kinase 1 [7] (read-out: pIC50 (converted)); 12.6 nM on Misshapen-like kinase 1 [8]; 31.6 nM in assay [10] (read-out: pIC50 (converted)); 7.94 nM in [11]; 1130 nM in assay [12] (read-out: IC50). In [14] (read-out: pIC50 (converted)), the IC50 is 12.6 nM. In assay [13], the inhibition entry is “Active”.

Take `CS(=O)(=O)c1ccc(-c2cc(-c3ccc(O)cc3)cnc2N)cc1`: the IC50 on Misshapen-like kinase 1 [7] (read-out: pIC50 (converted)) is 39.8 nM; at Misshapen-like kinase 1 [8], 15.8 nM; in [11], 10 nM; in [12] (read-out: IC50), 470 nM; in assay [14] (read-out: pIC50 (converted)) it was 10 nM. Further, the inhibition result in assay [13] is “Active”.

For `Fc1cc(-c2ccc3ccncc3n2)ccn1`, the inhibition result in [16] and in assay [13] was “inactive” in each case. Besides, the IC50 in assay [2] was 3980 nM; on Misshapen-like kinase 1 [7] (read-out: pIC50 (converted)), 25100 nM; against Misshapen-like kinase 1 [8], 3980 nM; in assay [10] (read-out: pIC50 (converted)), 20000 nM; in assay [11], 5010 nM; in assay [12] (read-out: pIC50 (converted)), above 31600 nM. Also, in assay [14] (read-out: pIC50 (converted)), the IC50 is 15800 nM.

For `Nc1ncnc2ccc(-c3ccnc(F)c3)nc12`, the IC50 on Misshapen-like kinase 1 [7] (read-out: IC50) was 150 to 200 nM; on Misshapen-like kinase 1 [7] (read-out: pIC50 (converted)) it was 200 nM; in [10] (read-out: IC50), 150 to 200 nM; in assay [10] (read-out: pIC50 (converted)) it was 158 nM; in assay [14] (read-out: IC50) it was 150 to 200 nM; in [14] (read-out: pIC50 (converted)) it was 158 nM.

Consider `CC(C)NC(=O)c1ccc(-c2cnc(N(C)C)c(-c3ccc(C#N)cc3)c2)cc1`, for which the inhibition result in assay [16] and in assay [13] was “inactive” throughout. Also, the IC50 in [2] was 50100 nM; at Misshapen-like kinase 1 [7] (read-out: pIC50 (converted)) it was 25100 nM; on Misshapen-like kinase 1 [8], 63100 nM; in assay [10] (read-out: pIC50 (converted)) it was 20000 nM; in assay [11], 25100 nM; in [12] (read-out: pIC50 (converted)) it was above 31600 nM. Further, the IC50 in assay [14] (read-out: pIC50 (converted)) was 25100 nM.

As to `CC(C)(O)c1cnc(N)c2nc(-c3ccnc(F)c3)ccc12`, the IC50 was 200 nM on Misshapen-like kinase 1 [7] (read-out: pIC50 (converted)), 158 nM in assay [10] (read-out: pIC50 (converted)) and 126 nM in assay [14] (read-out: pIC50 (converted)).

On to `CN(C)c1ncc(-c2ccc(O)cc2)cc1-c1ccc(S(C)(=O)=O)cc1`, for which the inhibition result in assay [16] and in assay [13] was “inactive” in each case. Moreover, the IC50 was 7940 nM in assay [2]; 20000 nM at Misshapen-like kinase 1 [7] (read-out: pIC50 (converted)); 6310 nM against Misshapen-like kinase 1 [8]; 15800 nM in assay [10] (read-out: pIC50 (converted)); 3980 nM in [11]; above 31600 nM in [12] (read-out: pIC50 (converted)). In addition, the IC50 in [14] (read-out: pIC50 (converted)) was 3980 nM.

As for `CC(C)NC(=O)c1ccc(-c2cnc(N)c(-c3ccc(C#N)cc3)c2)cc1`, the IC50 in assay [2] is 25.1 nM; at Misshapen-like kinase 1 [7] (read-out: pIC50 (converted)) it was 126 nM; against Misshapen-like kinase 1 [8] it was 39.8 nM; in [10] (read-out: pIC50 (converted)), 12.6 nM; in assay [11], 39.8 nM; in assay [12] (read-out: IC50), 930 nM. Also, the IC50 in [12] (read-out: pIC50 (converted)) is 1260 nM; in assay [14] (read-out: pIC50 (converted)) it was 79.4 nM. Moreover, the inhibition entry in assay [13] was “Active”.
